The test has as its target T1, Histone-lysine N-methyltransferase EHMT1 (Homo sapiens) (UniProt Q9H9B1).
T1 sequence (whole entry): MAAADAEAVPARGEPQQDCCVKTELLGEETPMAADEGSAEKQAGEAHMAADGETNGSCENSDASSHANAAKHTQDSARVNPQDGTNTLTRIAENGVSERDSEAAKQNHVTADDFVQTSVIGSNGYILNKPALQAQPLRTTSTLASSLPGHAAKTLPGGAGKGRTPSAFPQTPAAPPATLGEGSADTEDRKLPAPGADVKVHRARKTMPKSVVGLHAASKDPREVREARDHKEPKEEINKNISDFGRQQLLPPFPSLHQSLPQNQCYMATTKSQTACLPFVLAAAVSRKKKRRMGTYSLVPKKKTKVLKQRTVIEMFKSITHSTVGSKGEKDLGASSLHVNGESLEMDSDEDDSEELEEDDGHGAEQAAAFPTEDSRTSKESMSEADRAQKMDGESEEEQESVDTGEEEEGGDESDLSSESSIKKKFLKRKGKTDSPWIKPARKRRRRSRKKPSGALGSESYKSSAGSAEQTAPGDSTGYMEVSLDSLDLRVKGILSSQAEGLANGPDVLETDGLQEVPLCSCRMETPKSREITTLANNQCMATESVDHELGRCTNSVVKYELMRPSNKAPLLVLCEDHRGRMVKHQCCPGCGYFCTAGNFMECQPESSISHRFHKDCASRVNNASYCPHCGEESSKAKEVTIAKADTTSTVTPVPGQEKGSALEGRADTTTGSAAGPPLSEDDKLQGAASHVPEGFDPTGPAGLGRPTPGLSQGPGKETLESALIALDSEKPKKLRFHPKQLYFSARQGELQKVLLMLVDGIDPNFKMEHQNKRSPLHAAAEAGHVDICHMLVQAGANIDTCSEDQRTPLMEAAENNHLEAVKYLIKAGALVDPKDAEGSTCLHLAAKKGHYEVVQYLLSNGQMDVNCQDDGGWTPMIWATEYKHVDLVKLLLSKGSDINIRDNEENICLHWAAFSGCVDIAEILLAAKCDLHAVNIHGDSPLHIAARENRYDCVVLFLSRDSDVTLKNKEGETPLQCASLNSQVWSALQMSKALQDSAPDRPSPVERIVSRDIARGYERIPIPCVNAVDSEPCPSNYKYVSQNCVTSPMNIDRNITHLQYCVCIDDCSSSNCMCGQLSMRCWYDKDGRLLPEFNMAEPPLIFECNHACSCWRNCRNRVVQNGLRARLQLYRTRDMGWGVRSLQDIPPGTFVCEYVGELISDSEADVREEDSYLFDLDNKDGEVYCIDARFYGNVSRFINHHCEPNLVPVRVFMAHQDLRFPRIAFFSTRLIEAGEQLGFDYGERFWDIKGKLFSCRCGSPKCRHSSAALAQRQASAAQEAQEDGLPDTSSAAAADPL
As to the kind of experiment: Inhibition of GLP (unknown origin) at 1 uM.

Structures are written as SMILES. Activity calls are given as the source filed them. No cut-off for these calls is given here.

For the compound `C=CC(=O)Nc1cccc(-c2nc(NC3CCN(C)CC3)c3cc(OC)c(OC)cc3n2)c1`, the inhibition result is “Active”.

Values taken from ChEMBL document CHEMBL5634121, “Discovery of novel G9a/GLP covalent inhibitors for the treatment of triple-negative breast cancer” (Eur J Med Chem, 2023).
